# Assay results: EP0136464A2, “Therapeutic compositions for oral use containing stable S-Adenosy1-L-Methionine salts” (BIORESEARCH S.p.A., priority 1983, dated 1985)
# Read-outs that look alike come from different tables or passages of the source.
# How the values were obtained:
# [1] = SAMe concentration in portal and aortic plasma after intestinal or oral (gastric probe) administration; type: in vivo, male Sprague-Dawley rats; settings: rat, SAMe-tri-p. toluenesulphonate, reduced by control values; for concentration at 1 h: 60 min; for concentration at 1.5 h: 90 min; for concentration at 2 h: 120 min; for concentration at 3 h: 180 min; for concentration at 4 h: 240 min
# Description: The values given relate to tests carried out with SAMe-tri-p. toluenesulphonate, but substantially identical results were obtained with other known SAMe salts.
# The drug concentrations in the portal or aortic plasma were evaluated as the absorption parameters.
# The experiment was carried out on 72 male Sprague-Dawley rats of weight 210-260 g, which had fasted since the previous evening.
# The animals, anesthetised with ether, were operated on in order to insert a capsule into the proximal jejunum. The incision in the intestinal wall was closed by ligature, and the animals were sutured.
# The treatment scheme was as follows: • Intestinal administration: A capsule containing a weighed SAMe quantity corresponding to a dose of 32 mg/kg of body weight was inserted into the intestine, and 5 ml of H20/kg were administered by means of a gastric probe. • Oral administration: An empty capsule was inserted into the intestine, and 32 mg of SAMe/kg in aqueous solution (5 ml/kg) were • administered by means of a gastric probe. Controls: An empty capsule was inserted into the intestine, and 5 ml of H20/kg of body weight were administered by means of a gastric probe.
# After 10, 20, 40, 60, 90, 120, 180 and 240 minutes from administration, 3 animals were sacrificed at a time in order to withdraw portal and aortic blood.
# The SAMe concentrations in the plasma were determined by the Baldessarini and Kopin method (J. Neuroch. 13: 769, 1966).
# The values represent the mean + standard error of 3 observations, reduced by the values found for the controls.
# [2] = test system: Reaction to heat, tail flick test in the rat; test: Reaction to heat, tail flick test in the rat (analgesic activity); type: in vivo, male Sprague-Dawley rats
# Description: (§1) In the experiments carried out on animals which received the SAMe orally, the drug was dissolved in physiological solution and administered by gastric probe in a volume of 0.5 ml/100 g of body weight. An equal volume of physiological solution was administered to the controls.
# (§2) In the experiments in which SAMe was administered intraduodenally, the animals anesthetised with ether were subjected to laparotomy to allow the insertion into the duodenum of gelatin capsules (size 4) containing the product.
# (§3) After inserting the capsule, the duodenum was sutured carefully so as not to traumatise the tissue and was then returned to its seat, the muscular and cutaneous layers then being re-composed and sutured.
# (§4) The control animals received an empty gelatin capsule by the same procedure.
# 1) Reaction to heat, tail flick test in the rat.
# The analgesic activity of SAMe was evaluated in male Sprague-Dawley rats of about 190 g weight by the method of D'Amour and Smith (J. Pharmacol. Exp. Theor. 71, 74 (1941)).
# The SAMe was administered either orally or in gelatin capsules into the duodenum in doses of 50 and 100 mg/kg.
# Morphine was used as the comparison drug and was administered under the cutis at a dose of 5 mg/kg.
# The analgesic activity was determined 30, 60 and 120 minutes after administration of the drugs.
# The results represent the mean + S.E. for the number of animals indicated in parentheses. The morphine was administered under the cutis to rats which received one empty capsule into the duodenum.
# [3] = test system: Edema induced by carrageen in the rat; test: Edema induced by carrageen in the rat (anti-inflammatory activity); type: in vivo, Male Sprague-Dawley rats
# Description: as §1, §2, §3, §4
# The antiphlogistic and analgesic activity of SAMe were evaluated by the following tests: • A. Anti-inflammatory activity • 1) Edema induced by carrageen in the rat.
# Male Sprague-Dawley rats of about 170 g weight were used, having fasted since the evening preceding the experiment. Edema was induced by carrageen using the method described by Winter et al. (Proc. Soc. Exp. Biol. Med. 111, 544 (1962)).
# The SAMe was administered orally one hour before the carrageen at doses of 25 and 50 mg/kg, and intraduodenally at doses of 25 and 50 mg/kg 80 minutes before the phlogogenic agent. […]
# [4] = aortic plasma, po, 32 mg/kg aqueous solution by gastric probe, read-out: SAMe concentration in the plasma, Oral treatment, Aortic
# [5] = aortic plasma, 32 mg/kg capsule into proximal jejunum, read-out: SAMe concentration in the plasma, Intestinal treatment, Aortic
# [6] = portal plasma, po, 32 mg/kg aqueous solution by gastric probe, read-out: SAMe concentration in the plasma, Oral treatment, Portal
# [7] = portal plasma, 32 mg/kg capsule into proximal jejunum, read-out: SAMe concentration in the plasma, Intestinal treatment, Portal
compound,measurement,setting,value
"C[S+](CC[C@H](N)C(=O)[O-])C[C@H]1O[C@@H](n2cnc3c(N)ncnc32)[C@H](O)[C@@H]1O (stereo partly drawn) [SAMe, Sulpho-adenosyl-L-methionine]",concentration at 10 min,[1]; [4],1100 ng/mL
same,concentration at 20 min,[1]; [4],780 ng/mL
same,concentration at 40 min,[1]; [4],720 ng/mL
same,concentration at 1 h,[1]; [4],700 ng/mL
same,concentration at 1.5 h,[1]; [4],680 ng/mL
same,concentration at 2 h,[1]; [4],680 ng/mL
same,concentration at 3 h,[1]; [4],660 ng/mL
same,concentration at 4 h,[1]; [4],640 ng/mL
same,concentration at 10 min,[1]; [5],13100 ng/mL
same,concentration at 20 min,[1]; [5],8630 ng/mL
same,concentration at 40 min,[1]; [5],4390 ng/mL
same,concentration at 1 h,[1]; [5],1870 ng/mL
same,concentration at 1.5 h,[1]; [5],1280 ng/mL
same,concentration at 2 h,[1]; [5],880 ng/mL
same,concentration at 3 h,[1]; [5],690 ng/mL
same,concentration at 4 h,[1]; [5],530 ng/mL
same,concentration at 10 min,[1]; [6],2930 ng/mL
same,concentration at 20 min,[1]; [6],870 ng/mL
same,concentration at 40 min,[1]; [6],840 ng/mL
same,concentration at 1 h,[1]; [6],610 ng/mL
same,concentration at 1.5 h,[1]; [6],540 ng/mL
same,concentration at 2 h,[1]; [6],520 ng/mL
same,concentration at 3 h,[1]; [6],520 ng/mL
same,concentration at 4 h,[1]; [6],460 ng/mL
same,concentration at 10 min,[1]; [7],25500 ng/mL
same,concentration at 20 min,[1]; [7],9390 ng/mL
same,concentration at 40 min,[1]; [7],2990 ng/mL
same,concentration at 1 h,[1]; [7],2440 ng/mL
same,concentration at 1.5 h,[1]; [7],1540 ng/mL
same,concentration at 2 h,[1]; [7],770 ng/mL
same,concentration at 3 h,[1]; [7],770 ng/mL
same,concentration at 4 h,[1]; [7],640 ng/mL
same,Reaction time in minutes at various times after treatment,"[2]; administered into the duodenum, 50 mg/kg, 30 min",8.5 min
same,Reaction time in minutes at various times after treatment,"[2]; administered into the duodenum, 50 mg/kg, 60 min",8.2 min
same,Reaction time in minutes at various times after treatment,"[2]; administered into the duodenum, 50 mg/kg, 120 min",8.3 min
same,Reaction time in minutes at various times after treatment,"[2]; administered into the duodenum, 50 mg/kg, T0",4.8 min
same,Reaction time in minutes at various times after treatment,"[2]; administered into the duodenum, 100 mg/kg, 30 min",10.2 min
same,Reaction time in minutes at various times after treatment,"[2]; administered into the duodenum, 100 mg/kg, 60 min",9.6 min
same,Reaction time in minutes at various times after treatment,"[2]; administered into the duodenum, 100 mg/kg, 120 min",8.5 min
same,Reaction time in minutes at various times after treatment,"[2]; administered into the duodenum, 100 mg/kg, T0",5.0 min
same,Reaction time in minutes at various times after treatment,"[2]; administered orally, 50 mg/kg, 30 min",5.04 min
same,Reaction time in minutes at various times after treatment,"[2]; administered orally, 50 mg/kg, 60 min",4.09 min
same,Reaction time in minutes at various times after treatment,"[2]; administered orally, 50 mg/kg, 120 min",4.20 min
same,Reaction time in minutes at various times after treatment,"[2]; administered orally, 50 mg/kg, T0",4.60 min
same,Reaction time in minutes at various times after treatment,"[2]; administered orally, 100 mg/kg, 30 min",4.46 min
same,Reaction time in minutes at various times after treatment,"[2]; administered orally, 100 mg/kg, 60 min",4.73 min
same,Reaction time in minutes at various times after treatment,"[2]; administered orally, 100 mg/kg, 120 min",4.25 min
same,Reaction time in minutes at various times after treatment,"[2]; administered orally, 100 mg/kg, T0",4.41 min
same,"reaction times, difference between treated animals and the controls","[2]; intraduodenal administration, 100 mg/kg, 30 minutes after treatment",highly significant difference (P<0.01)
same,reaction time towards heat with respect to the controls,"[2]; oral administration, 50 and 100 mg/kg",not able to modify the reaction time towards heat
same,edema inhibition,"[3]; intraduodenal administration, 50 mg/kg, 80 minutes before the phlogogenic agent",statistically significant edema inhibition
same,edema development,"[3]; oral administration, 25 and 50 mg/kg, one hour before the carrageen, versus controls",not able to significantly modify the edema development
